From patent US8772480B2, “Inhibitors of PI3 kinase and/or mTOR” (priority 2009, dated 2014) come the findings set out here.

Experiment [1] has as its system phosphorylation of Akt at Serine 473 in U87 MG cells. In words: cells. Particulars: Homo sapiens, U-87 MG, 2 h, read-out: U87Cell IC50, pAkt (Ser 473), U87 MG cells, two hours with compound.
The target in the next experiment is PI3Kα (Homo sapiens (Human), UniProt P42336). Particulars: read-out: PI3Kα AlphaScreen ® Ki.

By IC50 is commonly meant the concentration that inhibits the measured activity by half. The term Ki denotes a measure of affinity in units of concentration, obtained from inhibition or displacement.

Structures are written as SMILES.

Chain of PI3Kα (P42336 whole entry): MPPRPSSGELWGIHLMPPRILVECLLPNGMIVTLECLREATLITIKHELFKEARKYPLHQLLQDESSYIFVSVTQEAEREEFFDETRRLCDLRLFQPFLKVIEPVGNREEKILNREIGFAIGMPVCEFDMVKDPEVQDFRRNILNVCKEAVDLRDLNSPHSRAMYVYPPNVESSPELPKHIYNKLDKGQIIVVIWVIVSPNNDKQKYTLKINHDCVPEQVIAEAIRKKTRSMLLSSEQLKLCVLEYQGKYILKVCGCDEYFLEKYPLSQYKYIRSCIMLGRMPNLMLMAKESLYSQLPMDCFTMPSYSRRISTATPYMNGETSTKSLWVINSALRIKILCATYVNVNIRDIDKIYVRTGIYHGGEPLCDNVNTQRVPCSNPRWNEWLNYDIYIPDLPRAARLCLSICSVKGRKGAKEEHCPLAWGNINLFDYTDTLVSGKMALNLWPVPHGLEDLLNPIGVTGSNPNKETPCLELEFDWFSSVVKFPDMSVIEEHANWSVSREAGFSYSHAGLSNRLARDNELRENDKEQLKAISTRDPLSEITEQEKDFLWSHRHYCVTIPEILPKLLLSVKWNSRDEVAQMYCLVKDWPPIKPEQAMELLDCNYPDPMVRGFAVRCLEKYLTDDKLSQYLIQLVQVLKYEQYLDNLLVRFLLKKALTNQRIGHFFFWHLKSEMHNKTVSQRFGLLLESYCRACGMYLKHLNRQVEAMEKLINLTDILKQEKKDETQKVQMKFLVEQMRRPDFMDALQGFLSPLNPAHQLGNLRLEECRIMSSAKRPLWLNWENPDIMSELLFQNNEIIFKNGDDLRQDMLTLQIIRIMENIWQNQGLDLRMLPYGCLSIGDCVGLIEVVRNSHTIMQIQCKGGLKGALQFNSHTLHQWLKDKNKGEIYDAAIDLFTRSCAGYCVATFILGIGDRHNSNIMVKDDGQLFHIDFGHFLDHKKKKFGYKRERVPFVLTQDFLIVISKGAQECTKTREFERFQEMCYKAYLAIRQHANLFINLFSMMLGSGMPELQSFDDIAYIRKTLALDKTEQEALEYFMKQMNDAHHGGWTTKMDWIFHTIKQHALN
Chain of PI3Kα (P27986 whole entry partner): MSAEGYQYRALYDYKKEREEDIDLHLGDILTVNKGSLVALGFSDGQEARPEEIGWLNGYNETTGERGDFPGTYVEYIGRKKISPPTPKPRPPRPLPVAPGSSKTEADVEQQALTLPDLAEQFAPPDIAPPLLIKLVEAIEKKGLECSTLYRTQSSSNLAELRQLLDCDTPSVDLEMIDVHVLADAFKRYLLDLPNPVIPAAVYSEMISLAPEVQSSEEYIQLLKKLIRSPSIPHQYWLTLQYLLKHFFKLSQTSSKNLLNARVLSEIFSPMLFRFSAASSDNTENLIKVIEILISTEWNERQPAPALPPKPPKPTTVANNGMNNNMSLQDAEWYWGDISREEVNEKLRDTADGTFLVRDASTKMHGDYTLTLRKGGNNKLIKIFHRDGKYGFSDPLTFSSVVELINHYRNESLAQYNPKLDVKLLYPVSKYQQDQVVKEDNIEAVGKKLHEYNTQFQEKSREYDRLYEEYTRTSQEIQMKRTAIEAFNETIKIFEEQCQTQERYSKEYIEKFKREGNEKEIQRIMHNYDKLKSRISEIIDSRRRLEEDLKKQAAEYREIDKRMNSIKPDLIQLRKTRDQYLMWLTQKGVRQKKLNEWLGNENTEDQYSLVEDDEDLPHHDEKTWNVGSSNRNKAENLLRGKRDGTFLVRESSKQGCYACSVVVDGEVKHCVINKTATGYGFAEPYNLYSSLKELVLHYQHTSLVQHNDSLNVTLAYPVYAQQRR

Turning to `Cc1nc(N)nc(-c2cc(CN3CCN(S(C)(=O)=O)CC3)cnc2Nc2cncnc2)n1` [Example 38, 4-Methyl-6-(5-((4-(Methylsulfonyl)Piperazin-1-yl)Methyl)-2-(Pyrimidin-5-Ylamino)Pyridin-3-yl)-1,3,5-Triazin-2-Amine], the IC50 in experiment [1] came to 0.145 µM. Also, the Ki on PI3Kα came to 0.017 µM.

With `Cc1nc(N)nc(-c2cc([C@@H](C)N3CCOCC3)cnc2Nc2cnc(Cl)c(NS(=O)(=O)N(C)C)c2)n1` [Example 373, (R)—N-(5-(3-(4-Amino-6-Methyl-1,3,5-Triazin-2-yl)-5-(1-Morpholinoethyl)Pyridin-2-Ylamino)-2-Chloropyridin-3-yl)-N,N-Dimethylaminosulfamide], in experiment [1], the IC50 was 0.001 µM. Also, the inhibition constant Ki on PI3Kα was determined as 0.006 µM.

`Cc1nc(N)nc(-c2cccnc2Nc2cnc(C)c(NS(C)(=O)=O)c2)n1` [Example 377, N-(5-(3-(4-Amino-6-Methyl-1,3,5-Triazin-2-yl)Pyridin-2-Ylamino)-2-Methylpyridin-3-yl)Methanesulfonamide]: the concentration for half-maximal inhibition (IC50) in experiment [1] came to 0.364 µM. Also, at PI3Kα, the Ki is 0.279 µM.

`COc1ncc(Nc2nc(COCC(F)(F)F)ccc2-c2nc(C)nc(N)n2)cc1F` [Example 199, 4-(2-(5-Fluoro-6-Methoxypyridin-3-Ylamino)-6-((2,2,2-Trifluoroethoxy)Methyl)Pyridin-3-yl)-6-Methyl-1,3,5-Triazin-2-Amine]: the half-maximal inhibitory concentration (IC50) in experiment [1] was 0.227 µM. At PI3Kα, the Ki came out at 0.068 µM.

In the case of `COc1ccc(Nc2ncc(C(C)N3CCN(S(C)(=O)=O)CC3)nc2-c2cc(N)nc(C)n2)cn1` (stereo not shown) [Example 286, 6-(3-(6-Methoxypyridin-3-Ylamino)-6-(1-(4-(Methylsulfonyl)Piperazin-1-yl)Ethyl)Pyrazin-2-yl)-2-Methylpyrimidin-4-Amine], the concentration for half-maximal inhibition (IC50) in experiment [1] came to 0.111 µM. Moreover, the Ki at PI3Kα was 0.011 µM.

In the case of `COc1ncc(Nc2ncc(C(C)NC(C)C)cc2-c2nc(C)nc(N)n2)cc1F` (stereo not shown) [Example 299, 4-(2-(5-Fluoro-6-Methoxypyridin-3-Ylamino)-5-(1-(Isopropylamino)Ethyl)Pyridin-3-yl)-6-Methyl-1,3,5-Triazin-2-Amine], the IC50 in experiment [1] is 0.045 µM. The inhibition constant Ki at PI3Kα was determined as 0.061 µM.

On to `Cc1nc(N)nc(-c2cccnc2Nc2ccc3c(c2)OC(F)(F)O3)n1` [Example 168, 4-(2-(2,2-Difluorobenzo[D][1,3]Dioxol-5-Ylamino)Pyridin-3-yl)-6-Methyl-1,3,5-Triazin-2-Amine], for which the IC50 in experiment [1] was more than 10 µM. Further, at PI3Kα, the Ki came to 0.61 µM.

For `COc1ccc(Nc2ncc(C(O)c3ccc(S(=O)(=O)N(C)C)cc3)cc2-c2nc(C)nc(N)n2)cn1` (stereo not shown) [Example 236, 4-((5-(4-Amino-6-Methyl-1,3,5-Triazin-2-yl)-6-(6-Methoxypyridin-3-Ylamino)Pyridin-3-yl)(Hydroxy)Methyl)-N,N-Dimethylbenzenesulfonamide], the IC50 in experiment [1] is more than 10 µM. At PI3Kα, the inhibitory constant (Ki) came out at 0.004 µM.

For `COc1ccc(Nc2ncc(-c3ccc(OC)nc3)cc2-c2nc(C)nc(N)n2)cn1` [Example 169, 5-(4-Amino-6-Methyl-1,3,5-Triazin-2-yl)-6′-Methoxy-N-(6-Methoxypyridin-3-yl)-3,3′-Bipyridin-6-Amine], the half-inhibitory concentration (IC50) in experiment [1] was found to be 0.105 µM. For the same molecule, the Ki on PI3Kα worked out at 0.017 µM.

In the case of `CCNc1cnc(Nc2ccc(OC)nc2)c(-c2nc(C)nc3[nH]cnc23)c1` [Example 94, N5-ethyl-N2-(6-methoxypyridin-3-yl)-3-(2-methyl-9H-purin-6-yl)pyridine-2,5-diamine], the 50% inhibitory concentration (IC50) in experiment [1] turned out to be 1.23 µM. Moreover, on PI3Kα, the inhibitory constant (Ki) stood at 0.181 µM.

With `Cc1nc(N)nc(-c2cc(C(C)N3CCN(S(C)(=O)=O)CC3)cnc2Nc2ccc3scnc3c2)n1` (stereo not shown) [Example 290, N-(3-(4-Amino-6-Methyl-1,3,5-Triazin-2-yl)-5-(1-(4-(Methylsulfonyl)Piperazin-1-yl)Ethyl)Pyridin-2-yl)Benzo[D]Thiazol-5-Amine], the IC50 in experiment [1] was 0.045 µM. Moreover, on PI3Kα, the Ki came to 0.024 µM.

As for `COc1ncc(Nc2nc(C)ccc2-c2nc(C)nc(N)n2)cc1F` [Example 197, 4-(2-(5-Fluoro-6-Methoxypyridin-3-Ylamino)-6-Methylpyridin-3-yl)-6-Methyl-1,3,5-Triazin-2-Amine], the concentration for half-maximal inhibition (IC50) in experiment [1] was 0.211 µM. In addition, the inhibitory constant (Ki) at PI3Kα is 0.033 µM.

On to `COc1cc(Nc2ncc(C(C)(C)O)cc2-c2nc(C)nc(N)n2)cnc1Cl` [Example 342, 2-(5-(4-Amino-6-Methyl-1,3,5-Triazin-2-yl)-6-(6-Chloro-5-Methoxypyridin-3-Ylamino)Pyridin-3-yl)Propan-2-ol], for which the 50% inhibitory concentration (IC50) in experiment [1] turned out to be 0.008 µM. Further, at PI3Kα, the inhibitory constant (Ki) is 0.025 µM.

`COc1ncc(Nc2nc(-c3cccnc3)ccc2-c2nc(C)nc(N)n2)cc1F` [Example 255, 5-(4-Amino-6-Methyl-1,3,5-Triazin-2-yl)-N-(5-Fluoro-6-Methoxypyridin-3-yl)-2,3′-Bipyridin-6-Amine]: the IC50 in experiment [1] came to 0.037 µM. Moreover, at PI3Kα, the Ki is 0.004 µM.

In the case of `COc1cc(Nc2ncc([C@@H](C)N3CCN(S(C)(=O)=O)CC3)cc2-c2nc(C)nc(N)n2)cnc1Cl` [Example 341, (R)-4-(2-(6-Chloro-5-Methoxypyridin-3-Ylamino)-5-(1-(4-(Methylsulfonyl)Piperazin-1-yl)Ethyl)Pyridin-3-yl)-6-Methyl-1,3,5-Triazin-2-Amine], in experiment [1], the IC50 was determined as 0.017 µM. In addition, at PI3Kα, the inhibition constant (Ki) was determined as 0.019 µM.

Take `Cc1nc(N)nc(-c2cc(CN3CCN(S(C)(=O)=O)CC3)cnc2Nc2ccc3[nH]cnc3c2)n1` [Example 260, N-(3-(4-Amino-6-Methyl-1,3,5-Triazin-2-yl)-5-((4-(Methylsulfonyl)Piperazin-1-yl)Methyl)Pyridin-2-yl)-1H-Benzo[D]Imidazol-5-Amine]: in experiment [1], the IC50 was 1.03 µM. In addition, on PI3Kα, the inhibition constant Ki amounted to 0.016 µM.

For the molecule `COc1ccc(Nc2ncc(N3CC[C@H](CO)C3)cc2-c2nc(C)nc3[nH]cnc23)cn1` [Example 204, ((3S)-1-(6-((6-Methoxy-3-Pyridinyl)Amino)-5-(2-Methyl-9H-Purin-6-yl)-3-Pyridinyl)-3-Pyrrolidinyl)Methanol], the IC50 in experiment [1] is 0.434 µM. In addition, the Ki on PI3Kα was determined as 0.04 µM.

`COc1ncc(Nc2ncc(C(C)(C)N)cc2-c2nc(C)nc(N)n2)cc1F` [Example 278, 4-(5-(2-Aminopropan-2-yl)-2-(5-Fluoro-6-Methoxypyridin-3-Ylamino)Pyridin-3-yl)-6-Methyl-1,3,5-Triazin-2-Amine]: the IC50 in experiment [1] worked out at 0.024 µM. Moreover, at PI3Kα, the inhibition constant (Ki) turned out to be 0.045 µM.

For the molecule `COc1ccc(Nc2ncc(-c3cncc(F)c3)cc2-c2nc(C)nc(N)n2)cn1` [Example 253, 5-(4-Amino-6-Methyl-1,3,5-Triazin-2-yl)-5′-Fluoro-N-(6-Methoxypyridin-3-yl)-3,3′-Bipyridin-6-Amine], the IC50 in experiment [1] was 0.28 µM. Moreover, on PI3Kα, the inhibition constant (Ki) is 0.012 µM.

Regarding `CC(=O)Nc1ccc(Nc2ncc(Cl)cc2-c2nc(C)nc(N)n2)cc1F` [Example 266, N-(4-(3-(4-Amino-6-Methyl-1,3,5-Triazin-2-yl)-5-Chloropyridin-2-Ylamino)-2-Fluorophenyl)Acetamide], the IC50 in experiment [1] stood at 1.1 µM. For the same molecule, the Ki at PI3Kα came out at 0.155 µM.

In the case of `Cc1nc(-c2cccnc2Nc2cnc(Cl)c(NS(C)(=O)=O)c2)c2nc[nH]c2n1` [Example 338, N-(2-Chloro-5-(3-(2-Methyl-9H-Purin-6-yl)Pyridin-2-Ylamino)Pyridin-3-yl)Methanesulfonamide], in experiment [1], the IC50 came out at 0.046 µM. Moreover, the inhibition constant (Ki) on PI3Kα worked out at 0.005 µM.

Regarding `CC(=O)Nc1ccc(Nc2ncc(CN3CCN(S(C)(=O)=O)CC3)cc2-c2nc(C)nc(N)n2)cn1` [Example 196, N-(5-(3-(4-Amino-6-Methyl-1,3,5-Triazin-2-yl)-5-((4-(Methylsulfonyl)Piperazin-1-yl)Methyl)Pyridin-2-Ylamino)Pyridin-2-yl)Acetamide], the 50% inhibitory concentration (IC50) in experiment [1] was determined as 0.322 µM. Also, the Ki at PI3Kα amounted to 0.052 µM.

Take `COc1ncc(Nc2ncc(C(C)(C)O)cc2-c2nc(C)nc(N)n2)cc1C` [Example 354, 2-(5-(4-Amino-6-Methyl-1,3,5-Triazin-2-yl)-6-(6-Methoxy-5-Methylpyridin-3-Ylamino)Pyridin-3-yl)Propan-2-ol]: the IC50 in experiment [1] amounted to 0.037 µM. Besides, the inhibitory constant (Ki) on PI3Kα amounted to 0.012 µM.

As for `COc1ncc(Nc2nc(CN3CCOCC3)ccc2-c2nc(C)nc(N)n2)cc1F` [Example 198, 4-(2-(5-Fluoro-6-Methoxypyridin-3-Ylamino)-6-(Morpholinomethyl)Pyridin-3-yl)-6-Methyl-1,3,5-Triazin-2-Amine], in experiment [1], the half-inhibitory concentration (IC50) is 0.219 µM. The Ki at PI3Kα came out at 0.276 µM.

Take `COc1ccc(Nc2nc3ccccc3cc2-c2nc(C)nc3[nH]cnc23)cn1` [Example 113, N-(6-Methoxypyridin-3-yl)-3-(2-Methyl-9H-Purin-6-yl)Quinolin-2-Amine]: in experiment [1], the IC50 was more than 10 µM. Also, at PI3Kα, the inhibition constant (Ki) is 0.038 µM.

On to `COc1ncc(Nc2ncc(C(C)(C)O)cc2-c2cc(N)nc(C)n2)cc1F` [Example 345, 2-(5-(6-Amino-2-Methylpyrimidin-4-yl)-6-(5-Fluoro-6-Methoxypyridin-3-Ylamino)Pyridin-3-yl)Propan-2-ol], for which, in experiment [1], the IC50 is 0.035 µM. Besides, on PI3Kα, the Ki was 0.013 µM.

As to `COc1ccc(Nc2ncc([C@H](C)N3CCN(S(C)(=O)=O)CC3)cc2-c2nc(C)nc(N)n2)cn1` [Example 145, (S)-4-(2-(6-Methoxypyridin-3-Ylamino)-5-(1-(4-(Methylsulfonyl)Piperazin-1-yl)Ethyl)Pyridin-3-yl)-6-Methyl-1,3,5-Triazin-2-Amine], the concentration for half-maximal inhibition (IC50) in experiment [1] stood at 0.008 µM. At PI3Kα, the inhibition constant Ki is 0.008 µM.

For the molecule `Cc1nc(-c2cc(C(C)N3CCOCC3)cnc2Nc2cnc(Cl)c(NS(C)(=O)=O)c2)c2nc[nH]c2n1` (stereo not shown) [Example 339, N-(2-Chloro-5-(3-(2-Methyl-9H-Purin-6-yl)-5-(1-Morpholinoethyl)Pyridin-2-Ylamino)Pyridin-3-yl)Methanesulfonamide], in experiment [1], the IC50 was 0.045 µM. Also, at PI3Kα, the Ki worked out at 0.003 µM.

For the molecule `COc1ncc(Nc2ncc(CN3CCOCC3)cc2-c2nc(C)nc(N)n2)cc1F` [Example 130, 4-(2-(5-fluoro-6-methoxypyridin-3-ylamino)-5-(morpholinomethyl)pyridin-3-yl)-6-methyl-1,3,5-triazin-2-amine], the IC50 in experiment [1] amounted to 0.014 µM. The Ki on PI3Kα was 0.02 µM.
